Laboratory results as given in the supplement of paper PMC10307832.

Tests used:
Test in all cases: relative viability (nuclei count vs DMSO), 5 days (fraction); higher = more cells survive
[1] = compound: CC(C)CCN1c2nc(Nc3cc(F)c(O)c(F)c3)ncc2N(C)C(=O)C1C [BI-D1870] + Nc1ncn([C@H]2C[C@H](O)[C@@H](CO)O2)c(=O)n1 [Decitabine] (partner 2 µM)
Outline: (§1)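 Five library-drug doses in √10 steps were combined with a fixed anchor-drug dose, or a single drug was given alone, by pin tool to lung cancer cell lines in 1536-well plates the day after seeding. Nuclei were stained and counted after 5 days. Relative viability is the nuclei count in treated wells over that in vehicle wells, taken as the median of duplicate plates.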

[2] = compound: CC(C)CCN1c2nc(Nc3cc(F)c(O)c(F)c3)ncc2N(C)C(=O)C1C [BI-D1870] + N=C(N)NC(=N)NCCc1ccccc1 [Phenformin] (partner 250 µM)
Outline: as §1

[3] = compound: CC(C)CCN1c2nc(Nc3cc(F)c(O)c(F)c3)ncc2N(C)C(=O)C1C [BI-D1870] + CC(=O)Nc1cccc(-n2c(=O)n(C3CC3)c(=O)c3c(Nc4ccc(I)cc4F)n(C)c(=O)c(C)c32)c1 [Trametinib] (partner 0.02 µM)
Outline: as §1

[4] = compound: O=c1ncccn1[C@@H]1O[C@H](CO)[C@@H](O)[C@H]1O [Zebularine] + CC1(C)CCC(c2ccc(Cl)cc2)=C(CN2CCN(c3ccc(C(=O)NS(=O)(=O)c4ccc(N[C@H](CCN5CCOCC5)CSc5ccccc5)c(S(=O)(=O)C(F)(F)F)c4)cc3)CC2)C1 [Navitoclax] (partner 0.5 µM)
Outline: as §1

Cell Line	relative viability ([1]; first compound 0.04 µM)	relative viability ([1]; first compound 0.1265 µM)	relative viability ([1]; first compound 0.4 µM)	relative viability ([1]; first compound 1.265 µM)	relative viability ([1]; first compound 4 µM)	relative viability ([2]; first compound 0.04 µM)	relative viability ([2]; first compound 0.1265 µM)	relative viability ([2]; first compound 0.4 µM)	relative viability ([2]; first compound 1.265 µM)	relative viability ([2]; first compound 4 µM)	relative viability ([3]; first compound 0.04 µM)	relative viability ([3]; first compound 0.1265 µM)	relative viability ([3]; first compound 0.4 µM)	relative viability ([3]; first compound 1.265 µM)	relative viability ([3]; first compound 4 µM)	relative viability ([4]; first compound 1 µM)	relative viability ([4]; first compound 3.162 µM)	relative viability ([4]; first compound 10 µM)	relative viability ([4]; first compound 31.62 µM)	relative viability ([4]; first compound 100 µM)
NCI-H2342	0.714	0.69	0.793	0.891	0.795	0.546	0.609	0.606	0.733	0.829	0.794	0.805	0.881	1	1.01	–	–	–	–	–
HCC-15	0.674	0.623	0.627	0.72	0.465	0.56	0.468	0.417	0.426	0.394	0.376	0.35	0.371	0.444	0.392	0.775	0.72	0.507	0.781	0.469
A-427	0.573	0.499	0.561	0.685	0.638	0.41	0.308	0.306	0.379	0.347	0.763	0.678	0.755	0.833	0.814	0.974	0.932	0.563	0.483	0.205
NCI-H2228	–	–	–	–	–	0.4	0.417	0.317	0.348	0.288	0.54	0.367	0.362	0.56	0.223	1.46	0.843	0.655	0.722	0.191
NCI-H1734	0.482	0.448	0.531	0.559	0.525	0.402	0.379	0.412	0.43	0.376	0.752	0.549	0.658	0.706	0.632	0.926	0.769	0.513	0.475	0.22
PC-14	0.203	0.148	0.278	0.198	0.223	0.669	0.521	0.587	0.627	0.447	0.864	0.534	0.788	0.498	0.243	1.07	1.06	0.346	0.113	0.129
NCI-H1915	0.267	0.247	0.285	0.234	0.271	0.376	0.358	0.378	0.305	0.291	0.332	0.27	0.27	0.254	0.249	0.816	0.769	0.565	0.872	0.771
NCI-H1666	0.711	0.701	0.716	0.732	0.677	0.572	0.521	0.592	0.58	0.537	0.847	0.798	0.801	0.882	0.878	0.98	1.05	0.857	1.08	0.575
HCC-366	0.337	0.306	0.322	0.469	0.414	0.705	0.587	0.608	0.608	0.573	0.347	0.311	0.328	0.39	0.221	1.12	1.02	0.449	0.556	0.0921
SK-MES-1	0.395	0.337	0.332	0.395	0.304	0.732	0.593	0.613	0.648	0.363	0.541	0.532	0.518	0.471	0.307	1.41	1.32	0.781	0.526	0.33
SW 1573	0.653	0.497	0.473	0.372	0.26	0.487	0.212	0.308	0.394	0.144	0.595	0.528	0.552	0.497	0.318	1.04	0.735	0.6	0.947	0.529
NCI-H661	0.524	0.555	0.542	0.651	0.546	0.27	0.28	0.281	0.289	0.269	0.607	0.499	0.598	0.589	0.472	–	–	–	–	–
PC-3 [JPC-3]	0.867	0.867	0.849	0.944	0.728	0.514	0.485	0.482	0.498	0.484	0.751	0.701	0.632	0.762	0.576	0.751	0.749	0.603	0.748	0.583
NCI-H1623	–	–	–	–	–	0.574	0.494	0.562	0.572	0.542	–	–	–	–	–	–	–	–	–	–
Calu-6	–	–	–	–	–	–	–	–	–	–	–	–	–	–	–	1.03	0.825	0.649	0.647	0.225
